The values below come from patent EP2965760A1, “Combination of antiretroviral agents for use in the prevention or treatment of chronic inflammatory diseases” (Université de Montpellier, priority 2014, dated 2016).

The subject of one assay is SCC12B2 cell line. Nature of the assay: Organotypic 3D reconstructed skin culture, cell differentiation (marker staining). The class given is cell-based, human. To be noted: SCC12B2-derived 3D reconstructed skin; for effect on cell differentiation: result in words; for effect on cell differentiation (staining for psoriasine and cytokeratin 10): 100 µM for 21 days, immunofluorescence.

Assay [1] relates to keratinocytes. Nature of the assay: Cytokine production by keratinocytes after demethylating treatment (protocol of figure 5, Day 7). To be noted: after demethylation treatment. The class given is cell-based. How it is done: • Figures 1A-C represent the expression of cytokeratin 10 on SCC12B2-derived 3D reconstructed skin detected by immunohistochemistry. • Figure 1A represents untreated SCC12B2-derived 3D reconstructed skin. • Figure 1B represents SCC12B2-derived 3D reconstructed skin treated by AZT (100 µM) for 21 days: • Figure 1C: represents SCC12B2-derived 3D reconstructed skin treated by efavirenz (100 µM) for 21 days. Arrow indicates cytokeratin 10 expression. • Figures 2A-D represent the expression of psoriasine on SCC12B2-derived 3D reconstructed skin detected by immunofluorescence. • Figure 2A represents untreated SCC12B2-derived 3D reconstructed skin. • Figure 2B represents SCC12B2-derived 3D reconstructed skin treated by AZT (100 µM) for 21 days: • Figure 2C represents SCC12B2-derived 3D reconstructed skin treated by Lamivudine (100 µM) for 21 days. • Figure 2D represents SCC12B2-derived 3D reconstructed skin treated by AZT (100 µM) and Lamivudine (100 µM) for 21 days. White staining denoted psoriasine expression. • Figures 3A-D represent the expression of cytokeratin 10 on SCC12B2-derived 3D reconstructed skin detected by immunofluorescence. • Figure 3A. represents untreated SCC12B2-derived 3D reconstructed skin. • Figure 3B represents SCC12B2-derived 3D reconstructed skin treated by AZT (100 µM) for 21 days: • Figure 3C represents SCC12B2-derived 3D reconstructed skin treated by lamividune (100 µM) for 21 days; • Figure 3D represents SCC12B2-derived 3D reconstructed skin treated with a combination of AZT (100 µM) and lamivudine (100 µM). White staining denoted cytokeratin 10 expression. • Figure 4 represents a histogram showing the level of endogenous RT activity in 3D reconstructed skin from various cell lines: PC F2 (A), PC B2 (B) or PC KN (C). PC F2 were obtained from the SCC12F2 cell line; PC B2 from the SCC12B2 cell line and PC KN from primary cultured human keratinocytes. Treatment were either azidothymidine (AZT; 2.) or efavirenz (3.) compared to the control (untreated; 1.). • Figure 5 represents a fow chart of the different treatments that aim at mimicking the initiating events of the psoriatic lesions • Figure 6 represents a histogram showing the level of the indicated cytokine production by keratinocytes at Day 7 of the protocol described in figure 5. Data were normalized versus control condition (fold increase in arbitrary unit). 1: IL-17 A; 2: IFN-γ; 3: TNF-α, 4: IL-1 RA and 5: IP-10. White columns represent the expression level in control cells. Black columns represent the expression level in cells treated with deoxyuridine, Grey columns represent the expression level in cells treated with desoxyuridine and Eviplera®. Hatched columns represent the expression level in cells treated with desoxyuridine and rilpivirine. Columns with dots represent the expression level in cells treated with desoxyuridine and efavirenz. • Figure 7 represents a graph showing time course (D0: Day 0; D2: Day 2; D5: Day 5; D7: Day 7) of the level of IL-6 production (fold increase) by keratinocytes according to the protocol described in figure 5. The expression is normalized to control at the corresponding time point. Diamond shape = untreated cells; Filled square = demethylating treated cells; Open square = treated with AZT; Filled circle = treated with lamivudine; Open circle = treated with Eviplera®. • Figure 8 represents a graph showing effects of ARVs upon simultaneous stimulation of RT activities on the production of IL-6 by keratinocytes. Values are normalized versus control. Filled diamond shape = control; Filled square = treated with demethylating agent; Triangle = treated with demethylating agent + Eviplera®; open diamond shape = treated with demethylating agent + lamivudine; Open circle = treated with demethylating agent + AZT; Filled circle = treated with demethylating agent + AZT + Lamivudine. […]

For a further assay, the system named is endogenous RT activities. Description: Endogenous reverse transcriptase activity in extracts of ARV-treated 3D reconstructed skin (colorimetric Mn2+ and Mg2+ RT kit). The class given is cell-based, human. To be noted: Mn2+ and Mg2+ dependent; reconstructed skin from SCC12F2, SCC12B2 and primary keratinocytes; result in words. An excerpt:
Endogenous RT activities are increased in the psoriatic lesion when compared to non lesional psoriatic skin or normal skin extracts. […] The origin and the nature of these proteins are unknown but considering that the disease is not transmissible horizontally they should be attributed to endogenous proteins. In fact several cellular proteins including telomerase, LINE ORF2 and RT from human endogenous retroviruses (HERV) harbour a reverse transcriptase activity. LINE ORF2 is a Mg^2+-dependent RT, like RTs of the HERVs belonging to the MMTV-like group. The MLV-like HERV group harbours a Mn^2+-dependent RT. Effects of ARV on these activities was assessed in 3D culture models: Various reconstructed skin were assessed for RT inhibition through RTI treatment. They were generated from SSC12F2 and SCC12B2 cell lines and from normal primary keratinocytes (KN).
Reverse transcriptase assay : Protein extracts were prepared by crushing the cryostat skin sections (100 µm) in liquid nitrogen, incubating in ice-cold lysis buffer (10 mM Tris-HCl pH 7.5, 1 mM MgCl2, 1 mM EDTA, 0.1 mM PMSF, 5 mM β-mercaptoethanol, 0.5 % CHAPS, 10 % glycerol, 1 % NP40) and then subjected to three freeze/thaw cycles (LN2/4°C). […] RT activities were quantified with colorimetric highly sensitive Mn^2+ and Mg^2+ RT kit (Cavidi, Uppsala, Sweden) according to the manufacturer's instructions. […]

For assay [2], the system named is keratinocytes. Nature of the assay: IL-6 secretion by keratinocytes upon RT induction, time course (protocol of figure 5). The class given is cell-based. To be noted: ARV after demethylating treatment; result in words. As to the method:
(§1) • Figures 1A-C represent the expression of cytokeratin 10 on SCC12B2-derived 3D reconstructed skin detected by immunohistochemistry. • Figure 1A represents untreated SCC12B2-derived 3D reconstructed skin. • Figure 1B represents SCC12B2-derived 3D reconstructed skin treated by AZT (100 µM) for 21 days: • Figure 1C: represents SCC12B2-derived 3D reconstructed skin treated by efavirenz (100 µM) for 21 days. Arrow indicates cytokeratin 10 expression. • Figures 2A-D represent the expression of psoriasine on SCC12B2-derived 3D reconstructed skin detected by immunofluorescence. • Figure 2A represents untreated SCC12B2-derived 3D reconstructed skin. • Figure 2B represents SCC12B2-derived 3D reconstructed skin treated by AZT (100 µM) for 21 days: • Figure 2C represents SCC12B2-derived 3D reconstructed skin treated by Lamivudine (100 µM) for 21 days. • Figure 2D represents SCC12B2-derived 3D reconstructed skin treated by AZT (100 µM) and Lamivudine (100 µM) for 21 days. […]

Assay [3] relates to keratinocytes. Description: IL-6 production by keratinocytes, ARVs given concomitantly with stimulation of RT activity. The class given is cell-based. The conditions noted are these: ARV concomitant with treatment that stimulated RT activity; result in words. As to the method:
as §1

“Also recorded” adds a separate entry of the source.

In the case of `Cc1cc(C#N)cc(C)c1Oc1nc(Nc2ccc(C#N)cc2)nc(N)c1Br` [Etravirine], the “effect on cell differentiation” value in the assay with SCC12B2 cell line is “no or minor effects”.
On the same count and under the same terms, in the case of `C[C@H](Cn1cnc2c(N)ncnc21)OCP(=O)(O)O` [Tenofovir] it was “impact cell differentiation”.
Regarding `Cc1cc(/C=C/C#N)cc(C)c1Nc1ccnc(Nc2ccc(C#N)cc2)n1` [Rilpivirine], in the assay on keratinocytes [1], the IFN-α expression decreased entry is listed as “more than 50%” and the IP10 expression decreased result is on record as “more than 50%”.
Take `O=C1Nc2ccc(Cl)cc2[C@@](C#CC2CC2)(C(F)(F)F)O1` [Efavirenz]: in the assay with keratinocytes [1], the IFN-α expression decreased result is listed as “more than 50%”, the IL17A expression entry is “undetectable”, the IP10 expression decreased entry is reported as “more than 50%” and the TNF-α production entry is recorded as “potent induction”. Moreover, the “endogenous RT activities” value with endogenous RT activities is “decreased endogenous RT activities of both type”. For the same molecule, the “effect on cell differentiation” value in the assay on SCC12B2 cell line is on record as “reverses the "tumoral" phenotype of SCC12B2 cell line”. Besides, the “effect on cell differentiation” value in the assay with SCC12B2 cell line (listed as efavirenz) is reported as “impact cell differentiation”.
For `Nc1ccn([C@H]2CS[C@@H](CO)O2)c(=O)n1` [lamivudine, 2',3'-dideoxy-3'-thiacytidine], the “effect on the synthesis of IL-6” value in the assay on keratinocytes [2] is listed as “neither AZT nor lamivudine have effect”; in the assay on keratinocytes [3], “no effect”. In addition, the “effect on cell differentiation (staining for psoriasine and cytokeratin 10)” value with SCC12B2 cell line is recorded as “Neither AZT, nor lamivudine has effect”.
With `Cc1cn([C@H]2C[C@H](N=[N+]=[N-])[C@@H](CO)O2)c(=O)[nH]c1=O` [AZT, Zidovudine], the entries for the “effect on the synthesis of IL-6” value in the assay on keratinocytes [2] and with keratinocytes [3] were “neither AZT nor lamivudine have effect” and “no effect”, respectively. Also, the “endogenous RT activities” value in the assay with endogenous RT activities is on record as “less effective”. The “effect on cell differentiation (staining for psoriasine and cytokeratin 10)” value in the assay on SCC12B2 cell line is “Neither AZT, nor lamivudine has effect”. For the same molecule, the “effect on cell differentiation” value in the assay with SCC12B2 cell line was “no effect; also recorded: no or minor effects”.
